Reference: patent publication US5192525A (Board of Regents, The University of Texas System, priority 1991, dated 1993)

Experiments:
[1] = literature; cited from earlier work
[2] = literature; cited from earlier work; remark: listed apart in the source
[3] = in vivo; cited from earlier work
[4] = tested on: estrogen receptor-positive breast cancer; conditions: McCague; cited from earlier work
[5] = molecular target: T1, estrogen receptor (Sus scrofa, UniProt Q29040); assay: Estrogen receptor binding in pig uterus cytosol, displacement of [3H]estradiol
T1 construct: uteri (90 gm) were obtained from immature domestic swine (15 kg); from tissue; host or cells: uterus cytosol (100,000 g supernatant, charcoal-treated) of immature domestic swine
T1 sequence (Q29040 1-595): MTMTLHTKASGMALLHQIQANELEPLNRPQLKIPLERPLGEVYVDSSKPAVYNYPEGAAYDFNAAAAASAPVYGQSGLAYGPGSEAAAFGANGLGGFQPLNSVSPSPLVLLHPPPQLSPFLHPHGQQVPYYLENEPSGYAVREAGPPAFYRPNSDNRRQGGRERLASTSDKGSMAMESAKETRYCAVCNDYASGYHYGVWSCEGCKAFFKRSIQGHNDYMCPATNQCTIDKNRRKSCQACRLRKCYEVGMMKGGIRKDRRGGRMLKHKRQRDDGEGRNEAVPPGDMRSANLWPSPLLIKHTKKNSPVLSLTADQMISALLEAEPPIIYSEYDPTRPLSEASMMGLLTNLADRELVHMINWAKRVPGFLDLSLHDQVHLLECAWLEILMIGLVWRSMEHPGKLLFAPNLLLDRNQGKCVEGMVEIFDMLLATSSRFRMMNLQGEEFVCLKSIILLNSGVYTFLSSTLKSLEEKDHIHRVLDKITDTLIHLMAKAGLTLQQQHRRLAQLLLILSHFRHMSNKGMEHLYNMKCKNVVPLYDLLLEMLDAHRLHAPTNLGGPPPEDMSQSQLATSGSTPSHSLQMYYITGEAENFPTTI
Description: done at 4° C. […] The protein
three experiments. In each experiment, triplicate samples were tested.
^2 IC50 : Concentration required to decrease the amount of bound
^3 RBA: Relative binding affinity is the IC50 ratio between

[6] = molecular target: T2, estrogen receptor (Rattus norvegicus, UniProt P06211); assay: Animal studies (imaging agents); type: in vivo
T2 construct: from tissue
T2 sequence (P06211 1-600): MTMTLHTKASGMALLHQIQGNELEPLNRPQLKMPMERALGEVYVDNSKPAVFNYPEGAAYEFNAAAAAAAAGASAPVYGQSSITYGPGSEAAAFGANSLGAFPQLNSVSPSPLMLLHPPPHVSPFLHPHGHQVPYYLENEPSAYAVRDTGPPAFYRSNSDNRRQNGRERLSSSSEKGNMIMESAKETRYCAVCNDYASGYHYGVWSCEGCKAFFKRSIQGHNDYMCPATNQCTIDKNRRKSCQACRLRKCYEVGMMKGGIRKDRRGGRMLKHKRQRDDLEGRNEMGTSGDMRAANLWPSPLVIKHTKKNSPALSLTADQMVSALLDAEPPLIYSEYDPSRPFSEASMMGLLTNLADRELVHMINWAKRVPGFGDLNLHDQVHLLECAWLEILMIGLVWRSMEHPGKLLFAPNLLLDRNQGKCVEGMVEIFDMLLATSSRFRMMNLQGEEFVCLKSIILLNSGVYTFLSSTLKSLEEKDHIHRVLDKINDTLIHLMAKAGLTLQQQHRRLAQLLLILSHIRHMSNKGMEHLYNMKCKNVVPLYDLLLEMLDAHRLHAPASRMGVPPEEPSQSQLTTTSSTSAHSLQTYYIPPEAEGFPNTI

[7] = tested on: progesterone receptor; conditions: in vivo; cited from earlier work

In the case of `CC/C(=C(\c1ccc(O)cc1)c1ccc(OCCN(C)C)cc1)c1ccccc1` [4-hydroxytamoxifen], the “anti-estrogen activity in vitro” value [1] is given as “potent anti-estrogen in vitro”, the “activity in vivo versus tamoxifen” value [2] is given as “less effective than tamoxifen in vivo” and the “ability to cross the cell membrane” value [3] is given as “polarity reduces its ability to cross the cell membrane”. For the same molecule, the glucuronidation and excretion [3] was “rapid glucuronidation of the hydroxyl group, followed by excretion”.

For `CC/C(=C(\c1ccc(I)cc1)c1ccc(OCCN(C)C)cc1)c1ccccc1` [Compound 4-iodo], the “potency in detecting estrogen receptor-positive breast cancer” value [4] is given as “greater potency than tamoxifen”.

In the case of `CCN(CC)CCOc1ccc(/C(=C(/CCCBr)c2ccccc2)c2ccccc2)cc1` [Compound XI], the “estrogen receptor binding, result in words” value ([5]; listed as Bromomethyl tamoxifen) is reported as “binds to estrogen receptors with greater affinity than the other halogenated tamoxifen analogs tested”, the “estrogen receptor binding, result in words” value ([5]; listed as bromomethyl-Tx analogs) is reported as “bind to estrogen receptors greater than other halogenated tamoxifens tested with F, Cl, or I” and the “results in animal studies” value [6] is reported as “produced the most superior results in animal studies”.

In the case of `CC[C@@H]1C[C@H]2[C@@H]3CCC4=CC(=O)CC[C@@H]4[C@H]3CC[C@]2(C)[C@H]1C(=O)C[18F]` [FENP, 21-[^18 F]fluoro-16-α-ethyl-19-norprogesterone], the “uterine target tissue uptake” value [7] is given as “high specific uterine target tissue uptake”.
